Test results reported in patent publication US20150268248A1, “CELL SELECTIVE PROTEOME LABELING” (MEMORIAL SLOAN-KETTERING CANCER CENTER, priority 2012, published 2015).
“Also recorded” adds a separate entry of the source.

What was measured:
DDC-expressing 3T3 cells = test: Growth rescue on precursors in L-Lysine-free medium (xCELLigence impedance); format: cell-based, mouse; details: 10 mM DAP or 4 mM D-Lysine, mono-culture
Description: (§1) Cell growth, assessed with impedance (a correlate of the number of cells) using the xCELLigence system, was normalized to maximum growth. Error bars represent the standard deviation of three biological replicates.
(§2) Cell lines were grown in Dulbecco's modified Eagle's medium (DMEM) without L-Lysine and L-Arginine (SILAC-DMEM, Thermo Fisher Scientific) supplemented with 10% dialyzed FBS, antibiotics, and L-glutamine. […] Cell viability was measured using either the metabolic-activity based Resazurin (Sigma) reagent or the impedance-based xCELLigence system (Roche). For Resazurin experiments, 25 μL of the Resazurin reagent was added to each well and cellular growth was estimated after two to three hours of incubation at 37° C. as described by the manufacturer. For xCELLigence experiments, cells were plated in either 16 or 96-well E-plates, allowed to settle for 30 minutes at room temperature, and then placed in the RTCA DP or RTCA MP analyzer where impedance was measured every 15 minutes for 96-120 hours. At least three replicates were performed for each condition.

[1] = test system: lyr-expressing MDA-MB-231 cells; test: as above; format: cell-based, human; details: 4 mM D-Lysine or 10 mM DAP, mono-culture
Description: as §1, §2

[2] = test system: B16 cells expressing truncated Lysine racemase (lyr); test: Growth on D-lysine of cells expressing truncated lyr; format: cell-based, mouse; details: mono- and co-culture in vitro
Description: CTAP can be quickly adaptable across many cell types without phenotypic or molecular disturbance. Cell lines that are suitable for use in practicing the method of the invention include, but are not limited to mouse fibroblast 3T3 cells, mouse melanoma, B16 cells, human embryonic kidney (HEK) cells, human mammary adenocarcinoma cells, […], etc.
Cell lines were grown in Dulbecco's modified Eagle's medium (DMEM) without L-Lysine and L-Arginine (SILAC-DMEM, Thermo Fisher Scientific) supplemented with 10% dialyzed FBS, antibiotics, and L-glutamine. For mono-culture growth assays, 1 mM L-Arginine was added to the media and cells were seeded in 200 μL in 96-well plates with 4000 or 5000 cells per well in different concentrations of L-Lysine, meso-2,6-diaminopimelate (DAP, Sigma, 33240), D-Lysine HCL (Sigma, L5876), N-α-Cbz-L-Lysine (Z-Lysine, BaChem, C-2200), or N2-acetyl-L-Lysine (N2A, Sigma, A2010). Cell viability was measured using either the metabolic-activity based Resazurin (Sigma) reagent or the impedance-based xCELLigence system (Roche). […] For xCELLigence experiments, cells were plated in either 16 or 96-well E-plates, allowed to settle for 30 minutes at room temperature, and then placed in the RTCA DP or RTCA MP analyzer where impedance was measured every 15 minutes for 96-120 hours. […]

3T3 cells = test: Growth of wild-type cells on L-Lysine precursors (Resazurin/AlamarBlue); format: cell-based, mouse; details: wild-type 3T3; medium without L-Lysine supplemented with high (mM-range) concentrations of precursor
Description: (§3) (a) Cells were seeded in 96 well format using at least 4 replicates per condition and cell proliferation was measured with the Resazurin (AlamarBlue) assay at the time indicated.
(§4) To investigate the candidate precursors and eliminate those that autonomously rescue L-Lysine auxotrophy, growth rates in SILAC media supplemented with L-Lysine, various precursors, or in L-Lysine-free conditions were examined.
as §2

HEK 293T cells = test: as above; format: cell-based, human; details: wild-type HEK 293T; medium without L-Lysine supplemented with high (mM-range) concentrations of precursor
Description: as §3, §4, §2

[3] = test system: HEK293T cells expressing a truncated Lysine racemase (lyr); test: Growth on D-lysine of cells expressing truncated lyr (xCELLigence impedance); format: cell-based, human; details: mono- and co-culture in vitro
Description: as §1
Cell lines were grown in Dulbecco's modified Eagle's medium (DMEM) without L-Lysine and L-Arginine (SILAC-DMEM, Thermo Fisher Scientific) supplemented with 10% dialyzed FBS, antibiotics, and L-glutamine. For mono-culture growth assays, 1 mM L-Arginine was added to the media and cells were seeded in 200 μL in 96-well plates with 4000 or 5000 cells per well in different concentrations of L-Lysine, meso-2,6-diaminopimelate (DAP, Sigma, 33240), D-Lysine HCL (Sigma, L5876), N-α-Cbz-L-Lysine (Z-Lysine, BaChem, C-2200), or N2-acetyl-L-Lysine (N2A, Sigma, A2010). Cell viability was measured using either the metabolic-activity based Resazurin (Sigma) reagent or the impedance-based xCELLigence system (Roche). For Resazurin experiments, 25 μL of the Resazurin reagent was added to each well and cellular growth was estimated after two to three hours of incubation at 37° C. as described by the manufacturer. For xCELLigence experiments, cells were plated in either 16 or 96-well E-plates, allowed to settle for 30 minutes at room temperature, and then placed in the RTCA DP or RTCA MP analyzer where impedance was measured every 15 minutes for 96-120 hours. […]

[4] = test system: MDA-MB-231 cells expressing truncated Lysine racemase (lyr); test: Growth on D-lysine of cells expressing truncated lyr; format: cell-based, human; details: mono- and co-culture in vitro
Description: Cell lines were grown in Dulbecco's modified Eagle's medium (DMEM) without L-Lysine and L-Arginine (SILAC-DMEM, Thermo Fisher Scientific) supplemented with 10% dialyzed FBS, antibiotics, and L-glutamine. For mono-culture growth assays, 1 mM L-Arginine was added to the media and cells were seeded in 200 μL in 96-well plates with 4000 or 5000 cells per well in different concentrations of L-Lysine, meso-2,6-diaminopimelate (DAP, Sigma, 33240), D-Lysine HCL (Sigma, L5876), N-α-Cbz-L-Lysine (Z-Lysine, BaChem, C-2200), or N2-acetyl-L-Lysine (N2A, Sigma, A2010). Cell viability was measured using either the metabolic-activity based Resazurin (Sigma) reagent or the impedance-based xCELLigence system (Roche). For Resazurin experiments, 25 μL of the Resazurin reagent was added to each well and cellular growth was estimated after two to three hours of incubation at 37° C. as described by the manufacturer. For xCELLigence experiments, cells were plated in either 16 or 96-well E-plates, allowed to settle for 30 minutes at room temperature, and then placed in the RTCA DP or RTCA MP analyzer where impedance was measured every 15 minutes for 96-120 hours. At least three replicates were performed for each condition.

[5] = test system: DDC-expressing HEK293T cells; test: Growth rescue on precursors in L-Lysine-free medium (xCELLigence impedance); format: cell-based, human; details: 10 mM DAP, mono-culture
Description: FIG. 9 are graphs showing that HEK293T cells expressing the L-Lysine biosynthesis enzyme diaminopimelate decarboxylase (DDC) specifically grow on meso-2,6-diaminopimelate (DAP). HEK293T cells stably transfected with DDC (left panel) or empty control vector (right panel) were cultured in 0.798 mM L-Lysine, 10 mM DAP, or neither (blank). Cell growth was estimated by the impedance-based xCelligence assay and data was normalized to the maximum value for each cell-type. Note that only HEK293T cells that express DDC grow on DAP. Error bars represent the standard deviation of three biological replicates.
The time to reach normal growth rates varied between cell-types from immediate to a short passaging/selection period.
as §2, with “For Resazurin experiments, 25 μL of the Resazurin reagent was added to each well and cellular growth was estimated after two to three hours of incubation at 37° C. as described by the manufacturer.” left out, “At least three replicates were performed for each condition.” left out

[6] = test system: CBZcleaver-expressing 3T3 cells; test: Growth on Z-Lysine (xCELLigence impedance); format: cell-based, mouse; details: 2.5 mM Z-Lysine, L-Lysine-free
Description: FIG. 10 are graphs showing that 3T3 cells expressing the CBZcleaver enzyme grow on Z-Lysine and partially incorporate L-Lysine produced from Z-Lysine (CBZ-Lysine). (a) 3T3 cells stably trasfected with CBZcleaver (left panel) or empty control vector (right panel) were cultured in 0.798 mM L-Lysine, 2.5 mM Z-Lysine, or without either (blank). Cell growth was estimated by the impedance-based xCELLigence assay and data was normalized to maximum values for each cell-type. Error bars represent the standard deviation of three biological replicates. […] The labeling status was assessed by quantitative LC-MS/MS at the beginning of the experiment where the cells were labeled with medium L-Lysine (left, K4) and after 10 days in L-Lysine-free media with heavy labeled Z-Lysine (right, Z8). […]
as §2, with “For Resazurin experiments, 25 μL of the Resazurin reagent was added to each well and cellular growth was estimated after two to three hours of incubation at 37° C. as described by the manufacturer.” left out, “At least three replicates were performed for each condition.” left out

NCCCC[C@@H](N)C(=O)O [D-Lysine]
growth rate relative to media containing L-Lysine (DDC-expressing 3T3 cells): no growth | growth rate relative to media containing L-Lysine [1]: comparable | growth on D-lysine relative to growth on L-lysine [2]: comparable | growth response (3T3 cells): no or limited growth response | growth response (HEK 293T cells): no or limited growth response | growth on D-lysine relative to growth on L-lysine [3]: comparable | growth on D-lysine relative to growth on L-lysine [4]: comparable

N[C@H](CCC[C@H](N)C(=O)O)C(=O)O [DAP, meso-2,6-diaminopimelate]
growth rate relative to media containing L-Lysine (DDC-expressing 3T3 cells): comparable | growth rate relative to media containing L-Lysine [1]: no growth | growth response (3T3 cells): no or limited growth response | growth rate relative to media containing L-Lysine [5]: comparable | growth response (HEK 293T cells): no or limited growth response

NCCCC[C@H](NC(=O)OCc1ccccc1)C(=O)O [Z-Lysine, N-α-Cbz-L-Lysine]
growth on Z-Lysine [6]: incomplete; also recorded: specific growth rescue | growth response (3T3 cells): no or limited growth response | growth response (HEK 293T cells): no or limited growth response

CC(=O)N[C@@H](CCCCN)C(=O)O [N2A, N2-acetyl-L-Lysine]
growth response (3T3 cells): substantial growth response | growth response (HEK 293T cells): substantial growth response
